From patent US11253524B2 (Gilead Sciences, Inc., priority 2018, dated 2022) come the findings set out here.

Some results are limits rather than exact numbers.

Series [1] deals with T1, human hepatic microsomal UGT1A1 (Homo sapiens, UniProt P22309).
T1 sequence (P22309 26-533): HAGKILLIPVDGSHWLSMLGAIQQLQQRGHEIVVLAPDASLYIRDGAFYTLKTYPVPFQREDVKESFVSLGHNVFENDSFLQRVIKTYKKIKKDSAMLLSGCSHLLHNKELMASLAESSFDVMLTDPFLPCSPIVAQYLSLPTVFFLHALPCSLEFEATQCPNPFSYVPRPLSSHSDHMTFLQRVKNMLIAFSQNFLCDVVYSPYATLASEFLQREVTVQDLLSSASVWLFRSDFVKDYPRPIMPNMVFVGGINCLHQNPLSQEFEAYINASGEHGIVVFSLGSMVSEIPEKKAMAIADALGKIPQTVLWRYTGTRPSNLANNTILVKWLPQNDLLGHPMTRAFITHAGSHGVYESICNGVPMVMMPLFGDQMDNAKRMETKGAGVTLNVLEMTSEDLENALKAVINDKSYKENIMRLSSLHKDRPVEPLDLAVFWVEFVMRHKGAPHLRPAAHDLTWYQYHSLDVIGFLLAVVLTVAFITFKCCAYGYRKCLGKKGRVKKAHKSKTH
As to the kind of experiment: biochemical. How it is done:
The conditions for the assay were determined to be linear with respect to microsomal protein concentration and incubation time. […] Microsomal UGT1A1 activity was determined in duplicate. […] Diluted microsomal fraction was incubated on ice for 15 minutes with alamethicin, magnesium chloride and SACLAC. Substrate and inhibitor were then added and the mixture warmed to 37° C. for 0.5 minute. The reaction was initiated by the addition of UDP glucuronic acid in potassium phosphate buffer. The incubation continued at 37° C. with shaking and no light exposure for 2 minutes. Reactions were terminated by addition of one volume of 200 mM ascorbic acid in methanol, containing 200 nM 2-(N-(2-ethylphenyl)methylsulfonamido)-N-(2-(pyridin-2-ylthio)ethyl)acetamide as the internal standard.
A Shimadzu UFLC XR UPLC system was used for analysis. The column used was a Thermo-Hypersil Gold 1.9 μm C18 column (30×2.1 mm) held at 60° C. Mobile phases were; A: water containing 0.1% (v/v) formic acid, and B: acetonitrile containing 0.1% (v/v) formic acid, pumped at 0.7 mL/minute. Elution was achieved by a series of linear gradients over 2 minutes. The mass spectrometer was an Applied Biosciences SCIEX QTRAP 5500 triple quadrupole mass spectrometer with an electrospray interface operating in positive ion mode. Quantification was by metabolite/internal standard peak area ratio (PAR).
MS/MS transitions ([M+H]+) of m/z 761.2/475.1 and 937.2/475.1 for the monoglucuronide and diglucuronide, respectively. The PAR values for the two monoglucuronides were combined for quantification.
Reaction velocities were calculated from the rates of formation of the metabolites and were compared to those seen with the vehicle control (100% activity). IC50 values were calculated by non-linear regression using GraphPad Prism 7.03 and a sigmoidal three parameter inhibition model. […] During the testing period the inhibitory potency of atazanavir was determined four times, with each concentration tested in duplicate in each determination. The data from all runs were pooled and a global fit performed to determine the lower plateau value. […] For atazanavir, the IC50 values from the four duplicate runs were combined to generate a summary geometric mean and multiplicative standard deviation for this positive control inhibitor.

The target of series [2] is T2, MRP2 (ABCC2) (Homo sapiens, UniProt Q92887).
T2 construct: host or cells: membrane vesicle preparations
Briefly: in vitro. The format is biochemical. The following applies: human. The protocol:
Cells and experimental conditions for the transporter inhibition assays are summarized below in Table 7. […] M15, M20, and M23 were prepared according to the procedures described herein. All other materials were purchased by SOLVO Biotechnology and experiments were conducted according to SOLVO Standard Operating Procedures (SOPs) of its certified ISO 9001:2008 system. Lot and product information was recorded by SOLVO Biotechnology.
Test compounds and positive control was incubated with membrane vesicle preparations (total protein: 50 μg/well) and the model substrate in the absence or presence of ATP. Reaction mixtures were preincubated for 15 minutes at 37° C. Reactions were started by the addition of 25 μL of 12 mM MgATP or AMP assay buffer (for background controls) preincubated separately. Reactions were stopped after 5 min by the addition of 200 μL of ice-cold washing buffer and immediate filtration via glass fiber filters mounted to a 96-well plate (filter plate). The filters were washed, dried and the amount of substrate inside the filtered vesicles determined by liquid scintillation. A positive control inhibitor was tested in parallel. Control membranes lacking transporter expression were used as negative control. All assays were performed in duplicate.
Fractional transport activities were calculated from the following equation: Activity %=(A−B)/(C−D)×100 where A is translocated amount of substrate in the presence of TA and ATP, B is translocated amount of substrate in the presence of TA, C is translocated amount of substrate in the presence of solvent and ATP, and D is translocated amount of substrate in the presence of solvent. IC50 Determination in Transporter Assays
IC50 is defined as the test article concentration needed to inhibit the maximal transporter specific transport by 50%. IC50 values were calculated using non-linear fitting of % inhibition versus concentration to a sigmoidal curve with a variable Hill Coefficient using GraphPad Prism 5 (GraphPad Software Inc., San Diego, Calif.). If the % inhibition was less than 50% at the highest concentration tested, the IC50 was not determined. No inhibition observed (NIO) is reported for relative inhibition results <20% and no concentration dependent transport observed up to the highest concentration tested.

Substrate in series [3]: C=CC1=C(C)/C(=C/c2[nH]c(Cc3[nH]c(/C=C4\NC(=O)C(C)=C4C=C)c(C)c3CCC(=O)O)c(CCC(=O)O)c2C)NC1=O
Briefly: cells, lysate or membranes named. The conditions noted are these: other: under the assay conditions; pH 7.4.

T2 sequence (Q92887 whole entry): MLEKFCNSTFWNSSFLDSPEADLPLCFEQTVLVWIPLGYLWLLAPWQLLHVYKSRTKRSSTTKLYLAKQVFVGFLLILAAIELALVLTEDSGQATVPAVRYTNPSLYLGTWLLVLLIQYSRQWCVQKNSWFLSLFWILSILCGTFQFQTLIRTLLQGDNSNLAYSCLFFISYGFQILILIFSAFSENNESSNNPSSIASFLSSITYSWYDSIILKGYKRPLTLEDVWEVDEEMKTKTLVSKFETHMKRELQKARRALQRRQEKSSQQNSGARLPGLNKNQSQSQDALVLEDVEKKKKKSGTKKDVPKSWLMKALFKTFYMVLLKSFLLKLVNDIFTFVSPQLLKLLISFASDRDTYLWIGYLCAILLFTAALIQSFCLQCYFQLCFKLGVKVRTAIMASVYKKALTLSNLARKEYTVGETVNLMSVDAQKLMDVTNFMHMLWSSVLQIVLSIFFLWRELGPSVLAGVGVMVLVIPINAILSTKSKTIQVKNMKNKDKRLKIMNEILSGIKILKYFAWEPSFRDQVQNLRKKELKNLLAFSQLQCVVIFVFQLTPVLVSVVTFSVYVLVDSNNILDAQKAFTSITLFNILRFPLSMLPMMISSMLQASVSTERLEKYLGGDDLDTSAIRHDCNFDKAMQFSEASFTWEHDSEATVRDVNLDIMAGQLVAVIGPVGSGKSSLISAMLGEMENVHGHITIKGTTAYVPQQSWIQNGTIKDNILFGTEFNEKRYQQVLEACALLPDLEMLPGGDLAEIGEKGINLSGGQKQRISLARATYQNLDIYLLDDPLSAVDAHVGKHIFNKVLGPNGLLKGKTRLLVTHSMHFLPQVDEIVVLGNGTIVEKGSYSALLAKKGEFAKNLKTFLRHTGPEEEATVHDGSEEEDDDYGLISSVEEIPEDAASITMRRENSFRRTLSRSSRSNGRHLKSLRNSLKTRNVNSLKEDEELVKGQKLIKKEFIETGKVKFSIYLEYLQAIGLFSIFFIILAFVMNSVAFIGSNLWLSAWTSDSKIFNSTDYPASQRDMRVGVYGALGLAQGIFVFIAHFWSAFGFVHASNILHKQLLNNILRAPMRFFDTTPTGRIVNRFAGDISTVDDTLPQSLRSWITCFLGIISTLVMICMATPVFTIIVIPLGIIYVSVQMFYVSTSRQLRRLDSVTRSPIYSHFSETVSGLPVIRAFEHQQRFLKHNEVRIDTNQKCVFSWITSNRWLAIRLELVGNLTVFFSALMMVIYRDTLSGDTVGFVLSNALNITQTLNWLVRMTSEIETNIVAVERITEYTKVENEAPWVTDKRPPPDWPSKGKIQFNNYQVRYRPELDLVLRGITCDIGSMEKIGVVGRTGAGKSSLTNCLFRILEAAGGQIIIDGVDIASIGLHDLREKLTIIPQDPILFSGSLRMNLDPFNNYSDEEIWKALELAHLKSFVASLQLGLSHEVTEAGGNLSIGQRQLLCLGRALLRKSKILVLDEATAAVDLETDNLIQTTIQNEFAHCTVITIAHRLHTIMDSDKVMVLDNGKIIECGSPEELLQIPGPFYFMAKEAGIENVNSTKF

The term IC50 denotes the concentration needed to halve the response being measured. A low value points to greater potency in that assay. In series [1], `COC(=O)N[C@H](C(=O)N[C@@H](Cc1ccccc1)[C@@H](O)CN(Cc1ccc(-c2ccccn2)cc1)NC(=O)[C@@H](NC(=O)OC)C(C)(C)C)C(C)(C)C` [atazanavir, reference compound] came in with an IC50 of 1.2 µM. The “Lower plateau value, activity remaining (global best fit)” value in series [1] (pooled data of four runs, standard error 2.94%) came out at 10.96%.
By inhibition is commonly meant the change of the read-out against control, counted positive when it falls. Lower therefore signals a weak effect. Molecule `CCc1oc2ccccc2c1C(=O)c1cc(Br)c(O)c(Br)c1` [benzbromarone, reference compound] returned an inhibition at 5 min, 200 µM in series [2] of at least 99%.

B1: human hepatic microsomal UGT1A1 (Homo sapiens) (protein)
chain: HAGKILLIPVDGSHWLSMLGAIQQLQQRGHEIVVLAPDASLYIRDGAFYTLKTYPVPFQREDVKESFVSLGHNVFENDSFLQRVIKTYKKIKKDSAMLLSGCSHLLHNKELMASLAESSFDVMLTDPFLPCSPIVAQYLSLPTVFFLHALPCSLEFEATQCPNPFSYVPRPLSSHSDHMTFLQRVKNMLIAFSQNFLCDVVYSPYATLASEFLQREVTVQDLLSSASVWLFRSDFVKDYPRPIMPNMVFVGGINCLHQNPLSQEFEAYINASGEHGIVVFSLGSMVSEIPEKKAMAIADALGKIPQTVLWRYTGTRPSNLANNTILVKWLPQNDLLGHPMTRAFITHAGSHGVYESICNGVPMVMMPLFGDQMDNAKRMETKGAGVTLNVLEMTSEDLENALKAVINDKSYKENIMRLSSLHKDRPVEPLDLAVFWVEFVMRHKGAPHLRPAAHDLTWYQYHSLDVIGFLLAVVLTVAFITFKCCAYGYRKCLGKKGRVKKAHKSKTH
One may read the Km as the concentration of substrate that gives half-maximal velocity. Take B1: in series [3], the Km stood at 0.98 µM.
